The assay relates to immune cells in BALF of OVA-sensitized mice. In words: Percentage of subpopulation of immune cells in BALF. To be noted: Pred group: 0.1 mg Prednisolone per day for 5 days; % of total BALF cells; mean±SD. Format: in vivo, BALB/c mice. The source says:
In this example the mice were induced to become allergic by using ovalbumin (OVA) as an allergen, and the mice were confirmed suffering the induced asthma from the appearance of OVE-specific IgE antibody in the mice. Mice in different groups were fed with a Poria extract or pure lanostane compound during the experimental period, and each mouse was subjected to an airway hyperresponsiveness test after one-month feeding, from which an important index reflecting the severe degree of the asthma of the mouse was determined. In this example different immune cells in bronchoalveolar lavage fluid (BALF) of the mice were also observed as to whether they particularly eosinophils and neutrophils were affected. Further, a chemoattractant factor, Eotaxin, was an important observation factor in this example for observing whether the secretion of cytokines changed dramatically.
(1) Experimental animal: Inbred BALB/c female mice were maintained by standard laboratory chow ad libitum. Room temperature was maintained at 19-24° C. and relative humidity at 50-70%. […]
As all groups of mice had finished of AHR analysis, they were sacrificed on next day. […] The total cell numbers were determined with 0.5 ml CM-10, wherein the density of cells was adjusted to 3×10^5 cells/ml. […] Two hundreds of leukocytes were counted on each slide, which includes four different cells, eosinophil, neutrophil, lymphocyte and monocyte. […]

Molecules are shown by their SMILES.

Turning to `C[C@]12C=CC(=O)C=C1CC[C@@H]1[C@@H]2[C@@H](O)C[C@@]2(C)[C@H]1CC[C@]2(O)C(=O)CO` [Pred, Prednisolone], the “Monocyte % in BALF” value was 13.3 ± 7.8% and the “Neutrophil % in BALF” value is listed as 0.8 ± 0.8%.
